target: T1, PARP1 (Homo sapiens, UniProt P09874); test: In-Cell Western measurement of PARylation in PARP1 WT and knockout cells; format: cell-based; settings: HeLa cells (wide-type with PARP1 gene); hydrogen peroxide-induced PARylation; compounds 30 min, then 10 mM hydrogen peroxide 15 min; read-out: HeLa_WT_IC50
T1 construct: HeLa cells (wide-type with PARP1 gene) were purchased from ATCC; host or cells: HeLa (wild type)
From the text: The purpose of this cell-based assay is to measure the potency and selectivity of synthesized PARP inhibitors in suppressing hydrogen peroxide-induced PARylation in cells with and without PARP1 expression. Several cell lines were used in this assay. The human PARP1 knockout HEK-293T cell line (#ab266598) was purchased from Abcam, and its corresponding wide-type control is the human wild-type HEK-293T cell line (#ab255449). The HAP1 isogenic cell lines with and without the PARP1 gene (#HZGHC003943c006) were purchased from Horizon Discovery. HeLa cells (wide-type with PARP1 gene) were purchased from ATCC. Cells were cultured using complete medium containing 10% fetal bovine serum. One day before the assay, cells were seeded in 96-well plates at the density of 20,000 cells per well in 100 uL complete medium. Compounds were dissolved using DMSO and diluted to the working concentrations using complete medium. Cells were pre-treated with compounds for 30 min and then stimulated with 10 mM hydrogen peroxide for 15 min. After stimulation, cells were immediately fixed using ice-cold methanol for 20 min. After fixation, cells were washed using 1×PBST buffer for 3 times, 5 min each time, to eliminate residual methanol. Cells were blocked for 2 h at room temperature in blocking buffer (LI-COR Biosciences, #927-70001). Primary antibody was diluted in diluent buffer (LI-COR Biosciences, #927-75001, 1:200) at 50 uL per well. Cells were incubated with the primary antibody at 4° C. for 18 h. The wells were then washed using 1×PBST for 3 times, 5 min each time. IRDye® 680RD Goat anti-Mouse IgG (H+L) secondary antibody was diluted at 1/2000 using the diluent buffer and added at 100 μL per well. Secondary antibody incubation was for 1 h at room temperature. Cells were then washed using 1×PBST for 3 times, 5 min each time. The signal was detected and analyzed using LI-COR Odyssey DLx Imaging system. Data were collected and further processed using GraphPad Prism for IC50 estimation.

T1 sequence (P09874 whole entry): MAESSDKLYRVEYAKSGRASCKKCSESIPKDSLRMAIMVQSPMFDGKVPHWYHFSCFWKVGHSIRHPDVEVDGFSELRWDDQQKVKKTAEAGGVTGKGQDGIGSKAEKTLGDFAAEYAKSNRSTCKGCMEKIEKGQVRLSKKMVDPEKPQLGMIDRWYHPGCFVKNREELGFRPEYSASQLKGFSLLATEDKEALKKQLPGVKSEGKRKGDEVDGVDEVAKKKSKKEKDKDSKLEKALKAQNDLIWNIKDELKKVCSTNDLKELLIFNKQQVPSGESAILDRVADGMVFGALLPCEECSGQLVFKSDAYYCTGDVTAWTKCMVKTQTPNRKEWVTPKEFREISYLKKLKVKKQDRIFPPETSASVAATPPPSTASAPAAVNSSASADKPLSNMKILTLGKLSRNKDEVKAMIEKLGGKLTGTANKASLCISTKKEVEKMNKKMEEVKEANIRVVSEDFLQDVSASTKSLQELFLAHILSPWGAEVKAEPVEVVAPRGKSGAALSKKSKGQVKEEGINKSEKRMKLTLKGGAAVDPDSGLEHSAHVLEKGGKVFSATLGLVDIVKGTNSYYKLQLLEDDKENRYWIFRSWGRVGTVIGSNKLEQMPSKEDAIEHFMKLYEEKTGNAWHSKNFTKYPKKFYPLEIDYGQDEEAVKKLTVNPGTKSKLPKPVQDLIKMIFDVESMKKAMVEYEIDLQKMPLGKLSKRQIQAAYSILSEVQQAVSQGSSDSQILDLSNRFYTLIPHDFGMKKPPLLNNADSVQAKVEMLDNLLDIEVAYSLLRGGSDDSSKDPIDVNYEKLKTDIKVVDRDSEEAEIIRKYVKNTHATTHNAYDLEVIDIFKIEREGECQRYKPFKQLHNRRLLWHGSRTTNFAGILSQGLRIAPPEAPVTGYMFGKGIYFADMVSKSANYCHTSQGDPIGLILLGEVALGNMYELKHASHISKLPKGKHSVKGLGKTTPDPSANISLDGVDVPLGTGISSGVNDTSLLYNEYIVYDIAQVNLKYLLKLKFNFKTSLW

`CCn1c(=O)[nH]c2cc(CN3CCN(c4ccc(C(=O)NC)nc4)CC3)ccc2c1=O` [Compound I-1, 5-(4-((3-Ethyl-2,4-dioxo-1,2,3,4-tetrahydroquinazolin-7-yl)methyl)piperazin-1-yl)-N-methylpicolinamide] and `CNC(=O)c1ccc(N2CCN(Cc3ccc4c(=O)n(CC(F)F)c(=O)[nH]c4c3)CC2)cn1` [Compound I-12, 5-(4-((3-(2,2-Difluoroethyl)-2,4-dioxo-1,2,3,4-tetrahydroquinazolin-7-yl)methyl)piperazin-1-yl)-N-methylpicolinamide] cannot be ordered by IC50: no more than 10 nM for the first, no more than 10 nM for the second.

`CCN1Cc2ccc(CN3CCN(c4ccc(C(=O)NC)nc4)CC3)cc2NC1=O` [Compound I-2, 5-(4-((3-Ethyl-2-oxo-1,2,3,4-tetrahydroquinazolin-7-yl)methyl)piperazin-1-yl)-N-methylpicolinamide] and `CCN1Cc2ncc(CN3CCN(c4ccc(C(=O)NC)nc4)CC3)cc2NC1=O` [Compound I-11, 5-(4-((3-Ethyl-2-oxo-1,2,3,4-tetrahydropyrido[3,2-d]pyrimidin-7-yl)methyl)piperazin-1-yl)-N-methylpicolinamide] fall in the same range of IC50: 10 to 100 nM for the first, 10 to 100 nM for the second.

First: CNC(=O)c1ccc(N2CCN(Cc3ccc4c(c3)NC(=O)C3CC43)CC2)cn1 (stereo not shown) [Compound I-3, N-Methyl-5-(4-((2-oxo-1a,2,3,7b-tetrahydro-1H-cyclopropa[c]quinolin-5-yl)methyl)piperazin-1-yl)picolinamide]
Second: CNC(=O)c1ccc(N2CCN(Cc3ccc4c(c3)NC(=O)C3(CC3)C4)CC2)cn1 [Compound I-5, N-methyl-5-(4-((2′-oxo-1′,4′-dihydro-2′H-spiro[cyclopropane-1,3′-quinolin]-7′-yl)methyl)piperazin-1-yl)picolinamide]
The IC50 of the first is higher: 100 to 500 nM for the first, 10 to 100 nM for the second. The second is the more potent here.

`CNC(=O)c1ccc(N2CCN(Cc3ccc4c5c(c(=O)[nH]c4c3)CCC5)CC2)cn1` [Compound I-4, N-methyl-5-(4-((4-oxo-2,3,4,5-tetrahydro-1H-cyclopenta[c]quinolin-7-yl)methyl)piperazin-1-yl)picolinamide] and `CNC(=O)c1ccc(N2CCN(Cc3cnc4c5c(c(=O)[nH]c4c3)CCC5)CC2)cn1` [Compound I-6, N-methyl-5-(4-((6-oxo-6,7,8,9-tetrahydro-5H-cyclopenta[c][1,5]naphthyridin-3-yl)methyl)piperazin-1-yl)picolinamide] cannot be ordered by IC50: no more than 10 nM for the first, no more than 10 nM for the second.

`CNC(=O)c1ccc(N2CCN(Cc3ccc4c(c3)[nH]c(=O)c3c4ccn3C)CC2)cn1` [Compound I-7, N-methyl-5-(4-((3-methyl-4-oxo-4,5-dihydro-3H-pyrrolo[2,3-c]quinolin-7-yl)methyl)piperazin-1-yl)picolinamide] and `CNC(=O)c1ccc(N2CCN(Cc3ccc4c(c3)[nH]c(=O)c3ccn(C)c34)CC2)cn1` [Compound I-8, N-methyl-5-(4-((1-methyl-4-oxo-4,5-dihydro-1H-pyrrolo[3,2-c]quinolin-7-yl)methyl)piperazin-1-yl)picolinamide] cannot be ordered by IC50: no more than 10 nM for the first, no more than 10 nM for the second.

First: CCn1c(=O)[nH]c2cc(CN3CCN(c4ccc(C(=O)NC)nc4)CC3)cnc2c1=O [Compound I-9, 5-(4-((3-Ethyl-2,4-dioxo-1,2,3,4-tetrahydropyrido[3,2-d]pyrimidin-7-yl)methyl)piperazin-1-yl)-N-methylpicolinamide]
Second: CCc1cc2sc(CN3CCN(c4ccc(C(=O)NC)nc4)CC3)cc2[nH]c1=O [Compound I-13, 5-(4-((6-Ethyl-5-oxo-4,5-dihydrothieno[3,2-b]pyridin-2-yl)methyl)piperazin-1-yl)-N-methylpicolinamide]
The IC50 of the first is higher: 100 to 500 nM for the first, no more than 10 nM for the second.

`CNC(=O)c1ccc(N2CCN(Cc3ccc4c(c3)[nH]c(=O)c3c4cnn3C)CC2)cn1` [Compound I-10, N-methyl-5-(4-((3-methyl-4-oxo-4,5-dihydro-3H-pyrazolo[3,4-c]quinolin-7-yl)methyl)piperazin-1-yl)picolinamide] and `CCc1c2c3c(cc(CN4CCN(c5ccc(C(=O)NC)nc5)CC4)cc3[nH]c1=O)OCC2` [Compound I-14, 5-(4-((4-Ethyl-5-oxo-2,3,5,6-tetrahydropyrano[4,3,2-de]quinolin-8-yl)methyl)piperazin-1-yl)-N-methylpicolinamide] cannot be ordered by IC50: 10 to 100 nM for the first, no more than 10 nM for the second.

`CCN1C(=O)Nc2cc(CN3CCN(c4ccc(C(=O)NC)nc4)CC3)cc3ncnc1c23` [Compound I-15, 5-(4-((3-Ethyl-2-oxo-2,3-dihydro-1H-pyrimido[4,5,6-de]quinazolin-8-yl)methyl)piperazin-1-yl)-N-methylpicolinamide] and `CCN1C(=O)Nc2cc(CN3CCN(c4ccc(C(=O)NC)nc4C)CC3)cc3ncnc1c23` [Compound I-17, 5-(4-((3-Ethyl-2-oxo-2,3-dihydro-1H-pyrimido[4,5,6-de]quinazolin-8-yl)methyl)piperazin-1-yl)-N,6-dimethylpicolinamide] cannot be ordered by IC50: no more than 10 nM for the first, no more than 10 nM for the second.

`CCn1c(=O)[nH]c2cc(CN3CCN(c4ccc(C(=O)NC)nc4C)CC3)ccc2c1=O` [Compound I-16, 5-(4-((3-ethyl-2,4-dioxo-1,2,3,4-tetrahydroquinazolin-7-yl)methyl)piperazin-1-yl)-N,6-dimethylpicolinamide] and `CCn1c(=O)[nH]c2cc(CN3CCN(c4ccc(C(=O)NC)nc4C)CC3)cc(F)c2c1=O` [Compound I-22, 5-(4-((3-ethyl-5-fluoro-2,4-dioxo-1,2,3,4-tetrahydroquinazolin-7-yl)methyl)piperazin-1-yl)-N,6-dimethylpicolinamide] cannot be ordered by IC50: no more than 10 nM for the first, no more than 10 nM for the second.

`CCN1C(=O)Nc2cc(CN3CCN(c4ccc(C(=O)NC)nc4C(F)(F)F)CC3)cc3ncnc1c23` [Compound I-18, 5-(4-((3-Ethyl-2-oxo-2,3-dihydro-1H-pyrimido[4,5,6-de]quinazolin-8-yl)methyl)piperazin-1-yl)-N-methyl-6-(trifluoromethyl)picolinamide] and `CCN1C(=O)Nc2cc(CN3CCN(c4ccc(C(=O)NC)nc4F)CC3)cc3ncnc1c23` [Compound I-19, 5-(4-((3-ethyl-2-oxo-2,3-dihydro-1H-pyrimido[4,5,6-de]quinazolin-8-yl)methyl)piperazin-1-yl)-6-fluoro-N-methylpicolinamide] cannot be ordered by IC50: no more than 10 nM for the first, no more than 10 nM for the second.

`CNC(=O)c1ccc(N2CCN(Cc3cnc4c5c(c(=O)[nH]c4c3)CCC5)CC2)c(C)n1` [Compound I-20, N,6-dimethyl-5-(4-((6-oxo-6,7,8,9-tetrahydro-5H-cyclopenta[c][1,5]naphthyridin-3-yl)methyl)piperazin-1-yl)picolinamide] and `CNC(=O)c1ccc(N2CCN(Cc3cnc4c5c(c(=O)[nH]c4c3)CCC5)CC2)c(F)n1` [Compound I-24, 6-Fluoro-N-methyl-5-(4-((6-oxo-6,7,8,9-tetrahydro-5H-cyclopenta[c][1,5]naphthyridin-3-yl)methyl)piperazin-1-yl)picolinamide] cannot be ordered by IC50: no more than 10 nM for the first, no more than 10 nM for the second.

`CCn1c(=O)[nH]c2c(F)c(CN3CCN(c4ccc(C(=O)NC)nc4C)CC3)ccc2c1=O` [Compound I-21, 5-(4-((3-ethyl-8-fluoro-2,4-dioxo-1,2,3,4-tetrahydroquinazolin-7-yl)methyl)piperazin-1-yl)-N,6-dimethylpicolinamide] and `CNC(=O)c1ccc(N2CCN(Cc3ncc4c5c(c(=O)[nH]c4c3F)CCC5)CC2)c(C)n1` [Compound I-25, 5-(4-((4-Fluoro-6-oxo-6,7,8,9-tetrahydro-5H-cyclopenta[c][1,6]naphthyridin-3-yl)methyl)piperazin-1-yl)-N,6-dimethylpicolinamide] cannot be ordered by IC50: no more than 10 nM for the first, no more than 10 nM for the second.

`CNC(=O)c1ccc(N2CCN(Cc3cnc4c5c(c(=O)[nH]c4c3)CCC5)CC2)c(C(F)(F)F)n1` [Compound I-23, N-methyl-5-(4-((6-oxo-6,7,8,9-tetrahydro-5H-cyclopenta[c][1,5]naphthyridin-3-yl)methyl)piperazin-1-yl)-6-(trifluoromethyl)picolinamide] and `CNC(=O)c1ccc(N2CCN(Cc3ncc4c5c(c(=O)[nH]c4c3F)CCC5)CC2)c(C(F)(F)F)n1` [Compound I-28, 5-(4-((4-Fluoro-6-oxo-6,7,8,9-tetrahydro-5H-cyclopenta[c][1,6]naphthyridin-3-yl)methyl)piperazin-1-yl)-N-methyl-6-(trifluoromethyl)picolinamide] cannot be ordered by IC50: no more than 10 nM for the first, no more than 10 nM for the second.

`CNC(=O)c1ccc(N2CCN(Cc3ncc4c5c(c(=O)[nH]c4c3F)CCC5)CC2)cn1` [Compound I-26, 5-(4-((4-Fluoro-6-oxo-6,7,8,9-tetrahydro-5H-cyclopenta[c][1,6]naphthyridin-3-yl)methyl)piperazin-1-yl)-N-methylpicolinamide] and `CNC(=O)c1ccc(N2CCN(Cc3ncc4c5c(c(=O)[nH]c4c3F)CCC5)CC2)c(F)n1` [Compound I-27, 6-Fluoro-5-(4-((4-fluoro-6-oxo-6,7,8,9-tetrahydro-5H-cyclopenta[c][1,6]naphthyridin-3-yl)methyl)piperazin-1-yl)-N-methylpicolinamide] cannot be ordered by IC50: no more than 10 nM for the first, no more than 10 nM for the second.

Reference: patent US20250163022A1, “PARP1 INHIBITORS” (Synnovation Therapeutics, Inc., priority 2021, published 2025)
